In US20220281848A1, “PYRAZOLE-SUBSTITUTED PYRROLIDINONES AS HERBICIDES” (FMC Corporation, priority 2019, published 2022):

Key:
Format in all cases: in vivo
Settings in all cases: after 13 d
[1] = test system: giant foxtail (Setaria faberi, SETFA); experiment: Test A pre-emergence, giant foxtail
Description: (§1) Seeds of corn (Zea mays, ZEAMX), giant foxtail (Setaria faberi, SETFA), barnyardgrass (Echinochloa crus-galli, ECHCG), ivy-leaved morning glory (Ipomoea hederacea, IPOHE), redroot pigweed (Amaranthus retroflexus, AMARE) and velvetleaf (Abutilon theophrasti, ABUTH) were sown in standard soil in pots. After cultivation for one day under controlled conditions in a glasshouse (at 24/16° C., day/night; 14 h light; 65% humidity), the plants were sprayed with an aqueous spray solution derived from the formulation of the technical active ingredient in acetone/water (50:50) solution containing 0.5% Tween 20 (polyoxyethylene sorbitan monolaurate, CAS RN 9005-64-5) to give a final dose of 15.625, 62.5 or 250 g/ha of test compound.
(§2) The test plants were then grown under controlled conditions in a glasshouse (at 24/16° C., day/night; 14 h light; 65% humidity) and watered twice daily. After 13 d the test was evaluated (100=total damage to plant; 0=no damage to plant).

corn (Zea mays, ZEAMX) [2] = experiment: Test A pre-emergence, corn
Description: as §1, §2

[3] = test system: redroot pigweed (Amaranthus retroflexus, AMARE); experiment: Test A post-emergence, redroot pigweed
Description: as §1, with “IPOHE)),” for “IPOHE),”, “8 d” for “one day”
(§3) The test plants were then grown on under controlled conditions in a glasshouse (at 24/16° C., day/night; 14 h light; 65% humidity) and watered twice daily. After 13 d the test was evaluated (100=total damage to plant; 0=no damage to plant).

[4] = test system: barnyardgrass (Echinochloa crus-galli, ECHCG); experiment: Test A post-emergence, barnyardgrass
Description: as §1, with “IPOHE)),” for “IPOHE),”, “8 d” for “one day”
as §3

[5] = test system: barnyardgrass (Echinochloa crus-galli, ECHCG); experiment: Test A pre-emergence, barnyardgrass
Description: as §1, §2

[6] = test system: ivy-leaved morning glory (Ipomoea hederacea, IPOHE); experiment: Test A pre-emergence, ivy-leaved morning glory
Description: as §1, §2

[7] = test system: redroot pigweed (Amaranthus retroflexus, AMARE); experiment: Test A pre-emergence, redroot pigweed
Description: as §1, §2

[8] = test system: velvetleaf (Abutilon theophrasti, ABUTH); experiment: Test A post-emergence, velvetleaf
Description: as §1, with “IPOHE)),” for “IPOHE),”, “8 d” for “one day”
as §3

[9] = test system: ivy-leaved morning glory (Ipomoea hederacea, IPOHE); experiment: Test A post-emergence, ivy-leaved morning glory
Description: as §1, with “IPOHE)),” for “IPOHE),”, “8 d” for “one day”
as §3

corn (Zea mays, ZEAMX) [10] = experiment: Test A post-emergence, corn
Description: as §1, with “IPOHE)),” for “IPOHE),”, “8 d” for “one day”
as §3

[11] = test system: velvetleaf (Abutilon theophrasti, ABUTH); experiment: Test A pre-emergence, velvetleaf
Description: as §1, §2

[12] = test system: giant foxtail (Setaria faberi, SETFA); experiment: Test A post-emergence, giant foxtail
Description: as §1, with “IPOHE)),” for “IPOHE),”, “8 d” for “one day”
as §3

| Compound | damage to plant (100=total damage; 0=no damage) SETFA ([1]; Pre-Emergence at 15.625 g/ha) | damage to plant (100=total damage; 0=no damage) SETFA ([1]; Pre-Emergence at 62.5 g/ha) | damage to plant (100=total damage; 0=no damage) SETFA ([1]; Pre-Emergence at 250 g/ha) | damage to plant (100=total damage; 0=no damage) ZEAMX (corn (Zea mays, ZEAMX) [2]; Pre-Emergence at 15.625 g/ha) | damage to plant (100=total damage; 0=no damage) ZEAMX (corn (Zea mays, ZEAMX) [2]; Pre-Emergence at 62.5 g/ha) | damage to plant (100=total damage; 0=no damage) ZEAMX (corn (Zea mays, ZEAMX) [2]; Pre-Emergence at 250 g/ha) | damage to plant (100=total damage; 0=no damage) AMARE ([3]; Post-Emergence at 15.625 g/ha) | damage to plant (100=total damage; 0=no damage) AMARE ([3]; Post-Emergence at 62.5 g/ha) | damage to plant (100=total damage; 0=no damage) AMARE ([3]; Post-Emergence at 250 g/ha) | damage to plant (100=total damage; 0=no damage) ECHCG ([4]; Post-Emergence at 15.625 g/ha) | damage to plant (100=total damage; 0=no damage) ECHCG ([4]; Post-Emergence at 62.5 g/ha) | damage to plant (100=total damage; 0=no damage) ECHCG ([4]; Post-Emergence at 250 g/ha) | damage to plant (100=total damage; 0=no damage) ECHCG ([5]; Pre-Emergence at 15.625 g/ha) | damage to plant (100=total damage; 0=no damage) ECHCG ([5]; Pre-Emergence at 62.5 g/ha) | damage to plant (100=total damage; 0=no damage) ECHCG ([5]; Pre-Emergence at 250 g/ha) | damage to plant (100=total damage; 0=no damage) IPOHE ([6]; Pre-Emergence at 15.625 g/ha) | damage to plant (100=total damage; 0=no damage) IPOHE ([6]; Pre-Emergence at 62.5 g/ha) | damage to plant (100=total damage; 0=no damage) IPOHE ([6]; Pre-Emergence at 250 g/ha) | damage to plant (100=total damage; 0=no damage) AMARE ([7]; Pre-Emergence at 15.625 g/ha) | damage to plant (100=total damage; 0=no damage) AMARE ([7]; Pre-Emergence at 62.5 g/ha) | further results |
| --- | --- | --- | --- | --- | --- | --- | --- | --- | --- | --- | --- | --- | --- | --- | --- | --- | --- | --- | --- | --- | --- |
| CCc1ccccc1NC(=O)C1C(=O)N(C)CC1c1cc(C(F)(F)F)n(C)n1 (racemic) [Compound 20] | 50 | 80 | 90 | 0 | 0 | 20 | 10 | 10 | 20 | 20 | 60 | 80 | 50 | 80 | 90 | 0 | 0 | 0 | 50 | 60 | damage to plant (100=total damage; 0=no damage) AMARE ([7]; Pre-Emergence at 250 g/ha): 70; damage to plant (100=total damage; 0=no damage) ABUTH ([8]; Post-Emergence at 15.625 g/ha): 0; damage to plant (100=total damage; 0=no damage) ABUTH ([8]; Post-Emergence at 62.5 g/ha): 0; damage to plant (100=total damage; 0=no damage) ABUTH ([8]; Post-Emergence at 250 g/ha): 0; damage to plant (100=total damage; 0=no damage) IPOHE ([9]; Post-Emergence at 15.625 g/ha): 0; damage to plant (100=total damage; 0=no damage) IPOHE ([9]; Post-Emergence at 62.5 g/ha): 0; damage to plant (100=total damage; 0=no damage) IPOHE ([9]; Post-Emergence at 250 g/ha): 0; damage to plant (100=total damage; 0=no damage) ZEAMX (corn (Zea mays, ZEAMX) [10]; Post-Emergence at 15.625 g/ha): 0; damage to plant (100=total damage; 0=no damage) ZEAMX (corn (Zea mays, ZEAMX) [10]; Post-Emergence at 62.5 g/ha): 0; damage to plant (100=total damage; 0=no damage) ZEAMX (corn (Zea mays, ZEAMX) [10]; Post-Emergence at 250 g/ha): 0; damage to plant (100=total damage; 0=no damage) ABUTH ([11]; Pre-Emergence at 15.625 g/ha): 0; damage to plant (100=total damage; 0=no damage) ABUTH ([11]; Pre-Emergence at 62.5 g/ha): 0; damage to plant (100=total damage; 0=no damage) ABUTH ([11]; Pre-Emergence at 250 g/ha): 0; damage to plant (100=total damage; 0=no damage) SETFA ([12]; Post-Emergence at 15.625 g/ha): 30; damage to plant (100=total damage; 0=no damage) SETFA ([12]; Post-Emergence at 62.5 g/ha): 70; damage to plant (100=total damage; 0=no damage) SETFA ([12]; Post-Emergence at 250 g/ha): 80 |
| CN1CC(c2cc(C(F)(F)F)n(C)n2)C(C(=O)Nc2cccc(F)c2OC(F)F)C1=O (racemic) [Compound 23] | 70 | 90 | 90 | 10 | 20 | 40 | 0 | 0 | 0 | 50 | 80 | 80 | 70 | 90 | 90 | 0 | 10 | 20 | 0 | 0 | damage to plant (100=total damage; 0=no damage) AMARE ([7]; Pre-Emergence at 250 g/ha): 0; damage to plant (100=total damage; 0=no damage) ABUTH ([8]; Post-Emergence at 15.625 g/ha): 0; damage to plant (100=total damage; 0=no damage) ABUTH ([8]; Post-Emergence at 62.5 g/ha): 0; damage to plant (100=total damage; 0=no damage) ABUTH ([8]; Post-Emergence at 250 g/ha): 0; damage to plant (100=total damage; 0=no damage) IPOHE ([9]; Post-Emergence at 15.625 g/ha): 0; damage to plant (100=total damage; 0=no damage) IPOHE ([9]; Post-Emergence at 62.5 g/ha): 10; damage to plant (100=total damage; 0=no damage) IPOHE ([9]; Post-Emergence at 250 g/ha): 30; damage to plant (100=total damage; 0=no damage) ZEAMX (corn (Zea mays, ZEAMX) [10]; Post-Emergence at 15.625 g/ha): 0; damage to plant (100=total damage; 0=no damage) ZEAMX (corn (Zea mays, ZEAMX) [10]; Post-Emergence at 62.5 g/ha): 20; damage to plant (100=total damage; 0=no damage) ZEAMX (corn (Zea mays, ZEAMX) [10]; Post-Emergence at 250 g/ha): 80; damage to plant (100=total damage; 0=no damage) ABUTH ([11]; Pre-Emergence at 15.625 g/ha): 0; damage to plant (100=total damage; 0=no damage) ABUTH ([11]; Pre-Emergence at 62.5 g/ha): 0; damage to plant (100=total damage; 0=no damage) ABUTH ([11]; Pre-Emergence at 250 g/ha): 0; damage to plant (100=total damage; 0=no damage) SETFA ([12]; Post-Emergence at 15.625 g/ha): 60; damage to plant (100=total damage; 0=no damage) SETFA ([12]; Post-Emergence at 62.5 g/ha): 80; damage to plant (100=total damage; 0=no damage) SETFA ([12]; Post-Emergence at 250 g/ha): 80 |
